The record followed here is patent US11149031B2, “Substituted N-(3-fluoropropyl)-pyrrolidine compounds, processes for their preparation and therapeutic uses thereof” (SANOFI, priority 2016, dated 2021).

pIC50: −log10 of the molar value.

Test [1] addresses His6-ERα298-554 WT (ERα ligand-binding domain) (Homo sapiens (Human), UniProt P03372). The test can be described thus: Test A: biochemical antagonist activity, LanthaScreen TR-FRET ERα coactivator assay, WT. The settings on record: asterisk (*): protocol using 10 nM estradiol; read-out: Antagonism WT IC50. In outline: (§1)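 His6-ERα LBD (aa 298–554), 0.5 nM, with Tb-anti-His6 antibody, 250 nM PGC1a peptide and 3 nM (or 10 nM) estradiol in pH 7.4 potassium phosphate/DTT buffer; incubated with compound overnight at room temperature. IC50 from 4-parameter logistic fit of TR-FRET 520:495 nm ratio.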
Background: In TR-FRET formats the signal depends on donor and acceptor labels being close together.

The subject of test [2] is MCF7 cells expressing mutant estrogen receptor Asp 538 Gly. As to the kind of experiment: Test B: cell proliferation/viability assay (CellTiter-Glo) on MCF7 Asp 538 Gly mutant. The test is classed as cell-based. The settings on record: Homo sapiens, MCF7, 168 h, MCF7 cells expressing ER Asp 538 Gly mutant, 7 days of compound exposure, read-out: proliferation MCF7 D538G IC50. In outline:
(§2)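 Seven-day compound exposure, 9 concentrations from 3 to 0.000001 μM, in phenol red-free medium with 5% charcoal-stripped serum. ER Tyr537Ser and Asp538Gly lines derive from transfected MCF7 selected to grow without estradiol. Viability from CellTiter-Glo luminescence, background-corrected, as percent of untreated.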
(In ATP-based viability assays light output follows the ATP content of the culture.)

In test [3] the target is His6-ERα298-554 Y537S mutant (ERα ligand-binding domain) (Homo sapiens (Human), UniProt P03372, Y537S). The test can be described thus: Test A: biochemical antagonist activity, LanthaScreen TR-FRET ERα coactivator assay, Y537S mutant. The settings on record: asterisk (*): protocol using 10 nM estradiol; read-out: Antagonism Y537S IC50. In outline:
as §1

Test [4] concerns the target His6-ERα298-554 D538G mutant (ERα ligand-binding domain) (Homo sapiens (Human), UniProt P03372, D538G). The test can be described thus: Test A: biochemical antagonist activity, LanthaScreen TR-FRET ERα coactivator assay, D538G mutant. The settings on record: asterisk (*): protocol using 10 nM estradiol; read-out: Antagonism D538G IC50. The method in brief: as §1
The next test deals with ERα in MCF7 cells (Homo sapiens (Human), UniProt P03372). As to the kind of experiment: Test C: estrogen receptor degradation activity, ERα in cell western assay in MCF7 cells. The test is classed as cell-based. Conditions: for DC50: 4 hours post compound addition, ERα in cell western, read-out: Degradation IC50; for % Degradation at 3 μM: 4 hours, relative to fulvestrant. In outline:
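In-cell western: ERα level (green) against DNA stain Syto-64 (red) by integrated intensity. MCF7 cells in hormone-depleted medium exposed 4 h to compound at 3-0.000018 μM final (1:5 series); fulvestrant 0.1 μM as positive control.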

Test [5] concerns MCF7 cells expressing mutant estrogen receptor Tyr 537 Ser. As to the kind of experiment: Test B: cell proliferation/viability assay (CellTiter-Glo) on MCF7 Tyr 537 Ser mutant. The test is classed as cell-based. The settings on record: Homo sapiens, MCF7, 168 h, MCF7 cells expressing ER Tyr 537 Ser mutant, 7 days of compound exposure, read-out: proliferation MCF7 Y537S IC50. In outline: as §2

In test [6] the test system is MCF7 cells (breast tumor cells) WT. As to the kind of experiment: Test B: cell proliferation/viability assay (CellTiter-Glo) on MCF7 WT. The test is classed as cell-based. The settings on record: Homo sapiens, MCF7, 168 h, 7 days of compound exposure. In outline: as §2

Sequence of His6-ERα298-554 WT (ERα ligand-binding domain) (P03372 298-554): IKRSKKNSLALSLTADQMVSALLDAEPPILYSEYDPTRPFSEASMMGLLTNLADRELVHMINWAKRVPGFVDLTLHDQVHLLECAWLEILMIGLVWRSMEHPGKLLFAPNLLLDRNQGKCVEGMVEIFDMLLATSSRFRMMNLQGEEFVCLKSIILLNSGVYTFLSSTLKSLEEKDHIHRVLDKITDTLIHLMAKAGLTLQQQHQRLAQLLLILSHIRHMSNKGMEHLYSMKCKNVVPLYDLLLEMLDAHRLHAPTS
Sequence of His6-ERα298-554 D538G mutant (ERα ligand-binding domain) (P03372 298-554 D538G): as the sequence (P03372 298-554) above, with D241G counted along it
Sequence of ERα in MCF7 cells (P03372 whole entry): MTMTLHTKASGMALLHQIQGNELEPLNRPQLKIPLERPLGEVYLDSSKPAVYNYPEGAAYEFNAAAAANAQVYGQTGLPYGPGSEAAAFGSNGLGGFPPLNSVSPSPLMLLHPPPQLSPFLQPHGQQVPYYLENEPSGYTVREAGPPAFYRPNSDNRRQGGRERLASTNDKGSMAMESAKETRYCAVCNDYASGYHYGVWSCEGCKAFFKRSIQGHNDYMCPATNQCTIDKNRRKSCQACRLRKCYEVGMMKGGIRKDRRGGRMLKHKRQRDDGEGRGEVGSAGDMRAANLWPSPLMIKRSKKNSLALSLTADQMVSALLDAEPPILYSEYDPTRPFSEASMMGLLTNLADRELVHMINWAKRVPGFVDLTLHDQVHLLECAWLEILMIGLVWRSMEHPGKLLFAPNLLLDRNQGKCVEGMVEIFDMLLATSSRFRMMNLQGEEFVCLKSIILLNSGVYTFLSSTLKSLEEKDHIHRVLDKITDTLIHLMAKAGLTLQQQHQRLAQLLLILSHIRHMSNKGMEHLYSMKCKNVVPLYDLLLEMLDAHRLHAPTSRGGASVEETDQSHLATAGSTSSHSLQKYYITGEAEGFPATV
Sequence of His6-ERα298-554 Y537S mutant (ERα ligand-binding domain) (P03372 298-554 Y537S): as the sequence (P03372 298-554) above, with Y240S counted along it

As for `CONC(=O)c1cc(C2=C(c3ccc(O[C@H]4CCN(CCCF)C4)cc3)c3ccc(O)cc3SCC2)ccc1F` [Example 199, 2-fluoro-5-[5-[4-[(3S)-1-(3-fluoropropyl)pyrrolidin-3-yl]oxyphenyl]-8-hydroxy-2,3-dihydro-1-benzothiepin-4-yl]-N-methoxy-benzamide], the pIC50 in test [1] was 7.68; in test [2], 9.70; in test [3], 6.50; in test [4], 6.34; in test [5], 8.40; in test [6] it was 9.70. At ERα in MCF7 cells, the DC50 was found to be 0.4 nM. The “% Degradation at 3 μM” value on ERα in MCF7 cells is on record as 94%.
Consider `CCNc1ccc(C2=C(c3ccc(O[C@H]4CCN(CCCF)C4)cc3)c3ccc(O)cc3SCC2)c(F)c1` [Example 200, 4-[4-(ethylamino)-2-fluoro-phenyl]-5-[4-[(3S)-1-(3-fluoropropyl)pyrrolidin-3-yl]oxyphenyl]-2,3-dihydro-1-benzothiepin-8-ol], for which the pIC50 in test [1] is 8.52; in test [2], 8.70; in test [3], 7.48; in test [4], 7.29; in test [5] it was 7.92; in test [6], 9.15. Moreover, the DC50 at ERα in MCF7 cells turned out to be 0.5 nM. For the same compound, the “% Degradation at 3 μM” value at ERα in MCF7 cells amounted to 91%.
Turning to `CC1(C)Cc2cc(C3=C(c4ccc(O[C@H]5CCN(CCCF)C5)cc4)c4ccc(O)cc4SCC3)ccc2O1` [Example 201, 4-(2,2-dimethyl-3H-benzofuran-5-yl)-5-[4-[(3S)-1-(3-fluoropropyl)pyrrolidin-3-yl]oxyphenyl]-2,3-dihydro-1-benzothiepin-8-ol], the pIC50 in test [1] is 9.00; in test [2], 9.00; in test [3] it was 7.82; in test [4], 7.68; in test [5], 8.10; in test [6], 9.70. In addition, the DC50 on ERα in MCF7 cells was determined as 0.8 nM. The “% Degradation at 3 μM” value on ERα in MCF7 cells is on record as 85%.
In the case of `C[C@@H]1Cc2cc(C3=C(c4ccc(O[C@H]5CCN(CCCF)C5)cc4)c4ccc(O)cc4SCC3)ccc2O1` [Example 202, 5-[4-[(3S)-1-(3-fluoropropyl)pyrrolidin-3-yl]oxyphenyl]-4-[(2R)-2-methyl-2,3-dihydrobenzofuran-5-yl]-2,3-dihydro-1-benzothiepin-8-ol], the pIC50 in test [1] is 9.00; in test [2] it was 9.00; in test [3], 7.96; in test [4], 7.82; in test [5], 8.22; in test [6], 9.40. In addition, the DC50 on ERα in MCF7 cells amounted to 0.5 nM. Further, the “% Degradation at 3 μM” value at ERα in MCF7 cells was 89%.
Regarding `C[C@H]1Cc2cc(C3=C(c4ccc(O[C@H]5CCN(CCCF)C5)cc4)c4ccc(O)cc4SCC3)ccc2O1` [Example 204, 5-[4-[(3S)-1-(3-fluoropropyl)pyrrolidin-3-yl]oxyphenyl]-4-[(2S)-2-methyl-2,3-dihydrobenzofuran-5-yl]-2,3-dihydro-1-benzothiepin-8-ol], the pIC50 was 7.62 in test [1]; 9.10 in test [2]; 7.82 in test [3]; 7.62 in test [4]; 8.30 in test [5]; 9.40 in test [6]. Besides, at ERα in MCF7 cells, the DC50 was 0.6 nM. Moreover, at ERα in MCF7 cells, the “% Degradation at 3 μM” value turned out to be 88%.
`Cc1ccc(C2=C(c3ccc(O[C@H]4CCN(CCCF)C4)nc3)c3ccc(O)cc3SCC2)c(Cl)c1` [Example 206, 4-(2-chloro-4-methyl-phenyl)-5-[6-[(3S)-1-(3-fluoropropyl)pyrrolidin-3-yl]oxy-3-pyridyl]-2,3-dihydro-1-benzothiepin-8-ol]: the pIC50 in test [1] was 9.15; in test [2] it was 9.15; in test [3], 8.05; in test [4], 7.89; in test [5], 8.40; in test [6], 9.52. Further, the DC50 on ERα in MCF7 cells came out at 0.4 nM. Moreover, the “% Degradation at 3 μM” value at ERα in MCF7 cells was 85%.
As for `Oc1ccc2c(c1)SCCC(c1ccc(OC(F)F)c(F)c1)=C2c1ccc(O[C@H]2CCN(CCCF)C2)nc1` [Example 207, 4-[4-(difluoromethoxy)-3-fluoro-phenyl]-5-[6-[(3S)-1-(3-fluoropropyl)pyrrolidin-3-yl]oxy-3-pyridyl]-2,3-dihydro-1-benzothiepin-8-ol], the pIC50 in test [1] was 8.70; in test [2], 9.52; in test [3], 8.22; in test [4] it was 8.05; in test [5] it was 8.70; in test [6], 10.00. For the same compound, the DC50 at ERα in MCF7 cells turned out to be 0.5 nM. The “% Degradation at 3 μM” value at ERα in MCF7 cells was determined as 85%.
In the case of `CCOc1ccc(C2=C(c3ccc(O[C@H]4CCN(CCCF)C4)nc3)c3ccc(O)cc3SCC2)c(F)n1` [Example 208, 4-(6-ethoxy-2-fluoro-3-pyridyl)-5-[6-[(3S)-1-(3-fluoropropyl)pyrrolidin-3-yl]oxy-3-pyridyl]-2,3-dihydro-1-benzothiepin-8-ol], the pIC50 in test [1] was 9.22; in test [2], 9.15; in test [3], 8.30; in test [4], 8.15; in test [5], 8.40; in test [6], 9.70. For the same compound, the DC50 at ERα in MCF7 cells stood at 0.4 nM. Further, at ERα in MCF7 cells, the “% Degradation at 3 μM” value is on record as 86%.
For the compound `[2H]C([2H])([2H])Oc1ccc(C2=C(c3ccc(O[C@H]4CCN(CCCF)C4)cc3)c3ccc(O)cc3SCC2)c(F)c1` [Example 209, 5-[4-[(3S)-1-(3-fluoropropyl)pyrrolidin-3-yl]oxyphenyl]-4-[2-fluoro-4-(trideuteriomethoxy)phenyl]-2,3-dihydro-1-benzothiepin-8-ol], the pIC50 was 8.70 in test [1]; 9.15 in test [2]; 7.70 in test [3]; 7.46 in test [4]; 8.40 in test [5]; 9.52 in test [6]. The DC50 on ERα in MCF7 cells came to 0.4 nM. Moreover, on ERα in MCF7 cells, the “% Degradation at 3 μM” value was 92%.
On to `Cc1ccc(C2=C(c3ccc(O[C@H]4CCN(CCCF)C4)cc3)c3ccc(C(=O)O)cc3SCC2)c(F)c1` [Example 210, 4-(2-fluoro-4-methyl-phenyl)-5-[4-[(3S)-1-(3-fluoropropyl)pyrrolidin-3-yl]oxyphenyl]-2,3-dihydro-1-benzothiepine-8-carboxylic acid], for which the pIC50 in test [1] was 6.99; in test [2], 9.00; in test [3] it was 5.87; in test [4] it was 5.65; in test [5], 7.82; in test [6], 9.10. The DC50 on ERα in MCF7 cells came to 2 nM. Further, the “% Degradation at 3 μM” value at ERα in MCF7 cells worked out at 89%.
On to `Cc1cc(C2=C(c3ccc(O[C@H]4CCN(CCCF)C4)cc3)c3ccc(C(=O)O)cc3SCC2)ccc1Cl` [Example 211, 4-(4-chloro-3-methyl-phenyl)-5-[4-[(3S)-1-(3-fluoropropyl)pyrrolidin-3-yl]oxyphenyl]-2,3-dihydro-1-benzothiepine-8-carboxylic acid], for which the pIC50 is 7.41 in test [1]; 9.22 in test [2]; 6.32 in test [3]; 6.02 in test [4]; 8.00 in test [5]; 9.40 in test [6]. Moreover, the DC50 at ERα in MCF7 cells was determined as 0.3 nM. For the same compound, the “% Degradation at 3 μM” value on ERα in MCF7 cells came out at 93%.
As to `Oc1ccc2c(c1)SCCC(c1ccc(OC(F)(F)F)cc1F)=C2c1ccc(O[C@H]2CCN(CCCF)C2)cc1` [Example 212, 5-[4-[(3S)-1-(3-fluoropropyl)pyrrolidin-3-yl]oxyphenyl]-4-[2-fluoro-4-(trifluoromethoxy)phenyl]-2,3-dihydro-1-benzothiepin-8-ol], the pIC50 in test [1] is 7.47; in test [2] it was 9.30; in test [3], 6.39; in test [4], 6.10; in test [5], 8.52; in test [6], 9.40. Moreover, the DC50 on ERα in MCF7 cells worked out at 2 nM. The “% Degradation at 3 μM” value on ERα in MCF7 cells amounted to 90%.
In the case of `Oc1ccc2c(c1)SCCC(c1ccc(OC(F)F)cc1F)=C2c1ccc(O[C@H]2CCN(CCCF)C2)cc1` [Example 213, 4-[4-(difluoromethoxy)-2-fluoro-phenyl]-5-[4-[(3S)-1-(3-fluoropropyl)pyrrolidin-3-yl]oxyphenyl]-2,3-dihydro-1-benzothiepin-8-ol], the pIC50 was 8.40 in test [1]; 9.70 in test [2]; 7.26 in test [3]; 7.02 in test [4]; 8.70 in test [5]; 9.52 in test [6]. In addition, the DC50 on ERα in MCF7 cells turned out to be 0.9 nM. In addition, on ERα in MCF7 cells, the “% Degradation at 3 μM” value is listed as 86%.
